Measurements published in US20060147947A1, “AMPK pathway components” (priority 2002, published 2006).
Where two headings read alike, the source gives them in different places.

Columns and labels:
AMPK = settings: cited from earlier work
N2 (wild type) animals = tested on: N2 (wild type) animals
From the text: (§1) To determine if the AMP/ATP ratio changed with age, we measured the levels of AMP, ADP, and ATP directly. We lysed 30 adult worms of the appropriate age, grown at the indicated temperature, lysed them, and separated the extract by Reversed Phase HPLC, measuring the Absorbance 260 nm. We used a C. elegans strain that lacks sperm at 25 C [CF512: fem-1(−); fer-15(−)].
(§2) Thirty animals of the appropriate age were hand-transferred to ice-cold lysis buffer (ATP Bioluminiscense Kit, Roche), frozen in liquid nitrogen, boiled for 15 minutes, passed trough a 0.2μ filter (Nanosep), and subjected to isocratic reversed phase chromatography using a TARGA C18 250×4.6 mm 5 μM column equilibrated in 100 mM KH2PO4, pH 6.0 at 1 mL per min. Detection at 260 nm was performed using a WATERS 486 tunable detector. Peak areas were measured using PEAK EXPLORER™ software. […] Unless noted, animals were one day old adults.
(§3) Dauer assays, heat tolerance and behavioral assays were performed as described. Starvation was performed by transfer to bacteria-free, peptone-free plates. Treatment with […] sodium azide was performed by transfer to plates with the drug; fraction alive was determined visually, six hours after transfer to normal growth. Gut fluorescence was photographed on the focal plane of the lumen with a DM505 filter on a NIKON E800 microscope. Average intensity was determined with METAMORPH™ 6.1r1 software.

amp-1(ok524) animals [1] = tested on: amp-1(ok524) animals
From the text: as §1, §2, §3

amp-1(ok524) animals [2] = settings: 1 mM sodium azide for 18 hours; amp-1(ok524) versus wild type
Procedure: Dauer assays, heat tolerance and behavioral assays were performed as described. Starvation was performed by transfer to bacteria-free, peptone-free plates. […] Gut fluorescence was photographed on the focal plane of the lumen with a DM505 filter on a NIKON E800 microscope. Average intensity was determined with METAMORPH™ 6.1r1 software.

[3] = 1 mM Azide 4 hours, then no azide 1 hour

CN(C)C(=N)N=C(N)N [Metformin]
effect on AMPK activity (AMPK): stimulate AMPK activity

[N-]=[N+]=[N-] [sodium azide]
AMP/ATP Average (N2 (wild type) animals; 1 mM Azide 1 hour): 2.08 | AMP/ATP Average (N2 (wild type) animals; 1 mM Azide 4 hours): 2.53 | AMP/ATP Average (N2 (wild type) animals; [3]): 1.08 | AMP/ATP Average (amp-1(ok524) animals [1]; 1 mM Azide 1 hour): 3.19 | AMP/ATP Average (amp-1(ok524) animals [1]; 1 mM Azide 4 hours): 4.34 | AMP/ATP Average (amp-1(ok524) animals [1]; [3]): 1.24 | AMP/ATP Average (amp-1(ok524) animals [1]; 1 mM Azide 4 hours, then no azide 2 hour): 1.29 | sensitivity to killing (amp-1(ok524) animals [2]): more sensitive than wild type animals to killing

Leptin: peptide hormone that increases AMPK activity when applied to cells
effect on AMPK activity (AMPK; applied to cells): increases AMPK activity

B1: adiponectin: globular and full-length adiponectin protein (protein, UniProt Q15848 19-244, looked up)
Adiponectin: ETTTQGPGVLLPLPKGACTGWMAGIPGHPGHNGAPGRDGRDGTPGEKGEKGDPGLIGPKGDIGETGVPGAEGPRGFPGIQGRKGEPGEGAYVYRSAFSVGLETYVTIPNMPIRFTKIFYNQQNHYDGSTGKFHCNIPGLYYFAYHITVYMKDVKVSLFKKDKAMLFTYDQYQENNVDQASGSVLLHLEVGDQVWLQVYGEGERNGLYADNDNDSTFTGFLLYHDTN
effect on AMPK activity (AMPK; liver cells): stimulates AMPK activity | effect on AMPK activity (AMPK; skeletal muscle): stimulate AMPK activity
